Reference: patent US9550728B2, “Thermo-responsive draw solute for forward osmosis and method for water desalination and purification using the same” (SEOUL NATIONAL UNIVERSITY R&DB FOUNDATION, priority 2011, dated 2017)

Experiments:
[1] = Measurement of flows and fluxes of water in forward osmosis through cellulose acetate semi-permeable membrane (brine vs draw solution)
Protocol: Referring to FIG. 11, the system has a structure in which glass tubes are arranged to face each other through a semi-permeable membrane. Unpurified water is arranged in one of the glass tubes and a draw solution is arranged in the other glass tube. After the glass tubes are placed in a temperature-controllable water bath, water desalination and purification experiments are conducted. Specifically, the experiments using LCST draw solutes are carried out in the order of low temperature (homogeneous phase) and high temperature (phase transition). The experiments using UCST draw solutes are carried out in the order of high temperature (homogeneous phase) and low temperature (phase transition). As the semi-permeable membrane, a cellulose acetate semi-permeable membrane is used. Specifically, the semi-permeable membrane includes a support layer composed of a polyester fiber coated with polyethylene and a dense layer composed of a cellulose triacetate fiber. The semi-permeable membrane is characterized by the ability to remove 95% or more of salts and low-molecular-weight materials.
Forward osmosis experiments were conducted at laboratory level using the thermo-responsive draw solutes synthesized above. The fluxes and directivities of water at low/high temperatures were confirmed with varying concentrations of brines and the draw solutions.
A stirrer was installed to maintain a uniform state of the solution in each glass tube and a thermostatic bath was installed for temperature control. After the temperature was maintained constant, the flux of water was measured. The amount of water flowing through the membrane was expressed in volume per unit area of the membrane and unit time (L/m^2h, LMH). The fluxes and directivities of water at low and high temperatures were measured at time points of each experiment. For better visual observation, a slight amount of dye was added to the system.

[2] = Measurement of transmittances of aqueous draw solute solutions according to temperature variation (UV/IR spectrometer); assay type: physicochemical
Protocol: For this observation, the transmittances of aqueous solutions of the draw solutes were measured using a UV/IR spectrometer.

[3] = Verification of reproducibility of forward osmosis experiments (repeated low/high temperature cycles); conditions: 2.0 M nBu-DETA, positive = flow from brine to nBu-DETA solution
Source text: A draw solute for a forward osmosis process should be able to be continuously reused after the process. […] FIG. 26 is a graph showing changes in the flux of water during repeated experiments using 2.0 M nBu-DETA.
In a conventional process using ammonium carbonate/ammonium hydroxide, recondensation is required to reuse recovered ammonia and carbon dioxide molecules. In contrast, in the three repeated cycles of forward osmosis using nBu-DETA as a draw solute, any special process for dissolution except stirring was not carried out but the solute having undergone a phase transition were dissolved when hot water was exchanged with cold water in the thermostatic bath. As a result, similar levels of fluxes were obtained, which can be seen from FIG. 26 and Table 9.

[4] = aqueous solution of LCST draw solute at temperatures lower than the reference temperature
[5] = aqueous solution of UCST draw solute at temperatures equal to or higher than the reference temperature

**Q.** For `CCCCCCOCCOCCO` [DEH], which “Flux (LMH)” value ([1]; 2 M DEH, 0.025 M NaCl, 40 (+0.5)° C., flow direction DEH→NaCl) is on record?
**A.** 1.6422 LMH

**Q.** And the “Flux (LMH)” value ([1]; 2 M DEH, 0.05 M NaCl, 40 (+0.5)° C., DEH→NaCl)?
**A.** 1.1 LMH

**Q.** What about the “Flux (LMH)” value ([1]; 2 M DEH, 0.1 M NaCl, 40 (+0.5)° C., DEH→NaCl) of the same compound?
**A.** 0.71 LMH

**Q.** What about the “Flux (LMH)” value ([1]; 2 M DEH, 0.15 M NaCl, 40 (+0.5)° C., DEH→NaCl) of the same compound?
**A.** 0.36 LMH

**Q.** And the “Flux (LMH)” value ([1]; 4.0 M DEH, 0.60 M NaCl, 18 (±0.5)° C., flow direction NaCl→DEH)?
**A.** 0.29 LMH

**Q.** What about the Transmittance [2, 4] of the same compound?
**A.** 100%

**Q.** Which “Flux of water from EGPE to NaCl” value ([1]; 6.4 M EGPE, 0.15 M brine, 5° C. (phase transition)) does the source give for `OCCOc1ccccc1` [EGPE] here?
**A.** 0.036 LMH

**Q.** What about the “Flux of water from NaCl to EGPE” value ([1]; 6.4 M EGPE, 0.3 M brine, 50° C.) of the same compound?
**A.** 0.14 LMH

**Q.** What about the Transmittance [2, 5] of the same compound?
**A.** 100%

**Q.** For `CCCC(=O)NCCN(CCNC(=O)CCC)C(=O)CCC` [nBu-DETA], which Flux of water ([1]; 0.5M nBu-DETA draw solution, 0.050M NaCl, 18 (±0.5)° C., flow direction NaCl→nBu-DETA) is on record?
**A.** 1.3 LMH

**Q.** And the Flux of water ([1]; 0.5M nBu-DETA, 0.10M NaCl, 18 (±0.5)° C., NaCl→nBu-DETA)?
**A.** 0.90 LMH

**Q.** And the Flux of water ([1]; 0.5M nBu-DETA, 0.15M NaCl, 18 (±0.5)° C., NaCl→nBu-DETA)?
**A.** 0.52 LMH

**Q.** What about the Flux of water ([1]; 1.0M nBu-DETA, 0.10M NaCl, 18 (±0.5)° C., NaCl→nBu-DETA) of the same compound?
**A.** 1.5 LMH

**Q.** What about the Flux of water ([1]; 1.0M nBu-DETA, 0.15M NaCl, 70 (±0.5)° C., nBu-DETA→NaCl) of the same compound?
**A.** 0.93 LMH

**Q.** And the Flux of water ([1]; 1.0M nBu-DETA, 0.20M NaCl, 18 (±0.5)° C., NaCl→nBu-DETA)?
**A.** 0.77 LMH

**Q.** And the Flux of water ([1]; 1.0M nBu-DETA, 0.2M NaCl, 70 (±0.5)° C., nBu-DETA→NaCl)?
**A.** 0.96 LMH

**Q.** What about the Flux of water ([1]; 1.0M nBu-DETA, 0.30M NaCl, 18 (±0.5)° C., NaCl→nBu-DETA) of the same compound?
**A.** 0.52 LMH

**Q.** What about the Flux of water ([1]; 1.0M nBu-DETA, 0.35M NaCl, 70 (±0.5)° C., nBu-DETA→NaCl) of the same compound?
**A.** 1.4 LMH

**Q.** What about the Flux of water ([1]; 1.0M nBu-DETA, 0.5M NaCl, 70 (±0.5)° C., nBu-DETA→NaCl) of the same compound?
**A.** 1.8 LMH

**Q.** And the Flux of water ([1]; 1.6M nBu-DETA, 0.15M NaCl, 70 (±0.5)° C., nBu-DETA→NaCl)?
**A.** 1.2 LMH

**Q.** What about the Flux of water ([1]; 1.6M nBu-DETA, 0.25M NaCl, 70 (±0.5)° C., nBu-DETA→NaCl) of the same compound?
**A.** 1.2 LMH

**Q.** What about the Flux of water ([1]; 1.6M nBu-DETA, 0.35M NaCl, 70 (±0.5)° C., nBu-DETA→NaCl) of the same compound?
**A.** 1.3 LMH

**Q.** What about the Flux of water ([1]; 1.6M nBu-DETA, 0.5M NaCl, 70 (±0.5)° C., nBu-DETA→NaCl) of the same compound?
**A.** 1.2 LMH

**Q.** And the Flux of water ([1]; 2.0M nBu-DETA, 0.05M NaCl, 70 (±0.5)° C., flow direction nBu-DETA→NaCl)?
**A.** −0.071 LMH

**Q.** What about the Flux of water ([1]; 2.0M nBu-DETA, 0.1M NaCl, 70 (±0.5)° C., nBu-DETA→NaCl) of the same compound?
**A.** 0.36 LMH

**Q.** And the Flux of water ([1]; 2.0M nBu-DETA, 0.15M NaCl, 70 (±0.5)° C., nBu-DETA→NaCl)?
**A.** 0.75 LMH

**Q.** What about the Flux of water ([1]; 2.0M nBu-DETA, 0.20M NaCl, 18 (±0.5)° C., NaCl→nBu-DETA) of the same compound?
**A.** 1.7 LMH

**Q.** What about the Flux of water ([1]; 2.0M nBu-DETA, 0.25M NaCl, 70 (±0.5)° C., nBu-DETA→NaCl) of the same compound?
**A.** 0.96 LMH

**Q.** And the Flux of water ([1]; 2.0M nBu-DETA, 0.35M NaCl, 70 (±0.5)° C., nBu-DETA→NaCl)?
**A.** 1.2 LMH

**Q.** And the Flux of water ([1]; 2.0M nBu-DETA, 0.40M NaCl, 18 (±0.5)° C., NaCl→nBu-DETA)?
**A.** 0.65 LMH

**Q.** And the Flux of water ([1]; 2.0M nBu-DETA, 0.5M NaCl, 70 (±0.5)° C., nBu-DETA→NaCl)?
**A.** 1.4 LMH

**Q.** And the Flux of water ([1]; 2.0M nBu-DETA, 0.60M NaCl, 18 (±0.5)° C., NaCl→nBu-DETA)?
**A.** 0.26 LMH

**Q.** What about the “Flux (L/m^2h)” value ([3]; 18° C., 1 Cycle) of the same compound?
**A.** 0.61 L/m^2h

**Q.** What about the “Flux (L/m^2h)” value ([3]; 18° C., 2 Cycle) of the same compound?
**A.** 0.71 L/m^2h

**Q.** And the “Flux (L/m^2h)” value ([3]; 18° C., 3 Cycle)?
**A.** 0.71 L/m^2h

**Q.** What about the “Flux (L/m^2h)” value ([3]; 70° C., 1 Cycle) of the same compound?
**A.** −0.64 L/m^2h

**Q.** What about the “Flux (L/m^2h)” value ([3]; 70° C., 2 Cycle) of the same compound?
**A.** −0.79 L/m^2h

**Q.** What about the “Flux (L/m^2h)” value ([3]; 70° C., 3 Cycle) of the same compound?
**A.** −0.61 L/m^2h

**Q.** And the Transmittance [2, 4]?
**A.** 100%

**Q.** For `CCCC(=O)NCCCN(C)CCCNC(=O)CCC` [nBu-DAPMA], which Transmittance [2, 4] is on record?
**A.** 100%

**Q.** With `CCCCC(=O)NCCN(CC)CC` [Val-DEEA] as the compound, how does the Transmittance [2, 4] read?
**A.** 100%

**Q.** With `CCCCNC(=O)CC` [N-BPA] as the compound, how does the Transmittance [2, 4] read?
**A.** 100%

**Q.** With `CC(C)C(N)=O` [IBAm] as the compound, how does the Transmittance [2, 5] read?
**A.** 100%

**Q.** For `CCCCC(=O)NCCCN(C)CCCNC(=O)CCCC` [Val-DAPMA], which Transmittance [2, 4] is on record?
**A.** 100%

**Q.** Which Transmittance [2, 4] does the source give for `CCN(CC)CCNC(=O)C(C)C` [iBu-DEEA] here?
**A.** 100%

**Q.** With `CCCCCOCC(C)O` (stereo not drawn) [PNP] as the compound, how does the Transmittance [2, 4] read?
**A.** 100%

**Q.** For `CCCC(=O)NCCN(C(C)C)C(C)C` [nBu-DIPA], which Transmittance [2, 4] is on record?
**A.** 100%

**Q.** For `CC(C)C(=O)O` [IBA], which Transmittance [2, 5] is on record?
**A.** 100%
